In patent US11725011B2, “Bicyclic urea kinase inhibitors and uses thereof” (The Broad Institute, Inc., priority 2016, dated 2023):

Key:
EPHB3 = EPHB3 (Homo sapiens (Human), UniProt P54753); assay: KINOMEscan; type: binding; details: 1 uM
CSNK1E = CSNK1E (Homo sapiens (Human), UniProt P49674); assay: KINOMEscan; type: binding; details: 1 uM
LRRK2 (G2019S) = LRRK2 (G2019S) (Homo sapiens (Human), UniProt Q5S007, G2019S); assay: KINOMEscan; type: binding; details: 1 uM
YSK4 = YSK4 (Homo sapiens (Human), UniProt Q56UN5); assay: KINOMEscan; type: binding; details: 1 uM
GRK7 = GRK7 (Homo sapiens (Human), UniProt Q8WTQ7); assay: KINOMEscan; type: binding; details: 1 uM
EPHA4 = EPHA4 (Homo sapiens (Human), UniProt P54764); assay: KINOMEscan; type: binding; details: 1 uM
NEK11 = NEK11 (Homo sapiens (Human), UniProt Q8NG66); assay: KINOMEscan; type: binding; details: 1 uM
BRK = BRK (Homo sapiens (Human), UniProt Q13882); assay: KINOMEscan; type: binding; details: 1 uM
CSNK2A2 = CSNK2A2 (Homo sapiens (Human), UniProt P19784); assay: KINOMEscan; type: binding; details: 1 uM
MARK2 = MARK2 (Homo sapiens (Human), UniProt Q7KZI7); assay: KINOMEscan; type: binding; details: 1 uM
MET (M1250T) = MET (M1250T) (Homo sapiens (Human), UniProt P08581, M1250T); assay: KINOMEscan; type: binding; details: 1 uM
TRKC = TRKC (Homo sapiens (Human), UniProt Q16288); assay: KINOMEscan; type: binding; details: 1 uM
EPHA8 = EPHA8 (Homo sapiens (Human), UniProt P29322); assay: KINOMEscan; type: binding; details: 1 uM
ALK (L1196M) = ALK (L1196M) (Homo sapiens (Human), UniProt Q9UM73, L1196M); assay: KINOMEscan; type: binding; details: 1 uM
FGR = FGR (Homo sapiens (Human), UniProt P09769); assay: KINOMEscan; type: binding; details: 1 uM
EPHA2 = EPHA2 (Homo sapiens (Human), UniProt P29317); assay: KINOMEscan; type: binding; details: 1 uM
p38-alpha = p38-alpha (Homo sapiens (Human), UniProt Q16539); assay: KINOMEscan; type: binding; details: 1 uM
AURKC = AURKC (Homo sapiens (Human), UniProt Q9UQB9); assay: KINOMEscan; type: binding; details: 1 uM
[1] = biological target: ABL1 (F317I)-nonphosphorylated (Homo sapiens (Human), UniProt P00519, F317I); assay: KINOMEscan; type: binding; details: 1 uM
CDKL1 = CDKL1 (Homo sapiens (Human), UniProt Q00532); assay: KINOMEscan; type: binding; details: 1 uM
p38-beta = p38-beta (Homo sapiens (Human), UniProt Q15759); assay: KINOMEscan; type: binding; details: 1 uM
STK33 = STK33 (Homo sapiens (Human), UniProt Q9BYT3); assay: KINOMEscan; type: binding; details: 1 uM
SYK = SYK (Homo sapiens (Human), UniProt P43405); assay: KINOMEscan; type: binding; details: 1 uM
SRMS = SRMS (Homo sapiens (Human), UniProt Q9H3Y6); assay: KINOMEscan; type: binding; details: 1 uM
ALK = ALK (Homo sapiens (Human), UniProt Q9UM73); assay: KINOMEscan; type: binding; details: 1 uM
INSR = INSR (Homo sapiens (Human), UniProt P06213); assay: KINOMEscan; type: binding; details: 1 uM
PDGFRB = PDGFRB (Homo sapiens (Human), UniProt P09619); assay: KINOMEscan; type: binding; details: 1 uM
DLK = DLK (Homo sapiens (Human), UniProt Q12852); assay: KINOMEscan; type: binding; details: 1 uM
BMPR1B = BMPR1B (Homo sapiens (Human), UniProt O00238); assay: KINOMEscan; type: binding; details: 1 uM
ABL2 = ABL2 (Homo sapiens (Human), UniProt P42684); assay: KINOMEscan; type: binding; details: 1 uM
[2] = biological target: JAK3 (JH1domain-catalytic) (Homo sapiens (Human), UniProt P52333); assay: KINOMEscan; type: binding; details: 1 uM
GSK3B = GSK3B (Homo sapiens (Human), UniProt P49841); assay: KINOMEscan; type: binding; details: 1 uM
PLK1 = PLK1 (Homo sapiens (Human), UniProt P53350); assay: KINOMEscan; type: binding; details: 1 uM
FGFR2 = FGFR2 (Homo sapiens (Human), UniProt P21802); assay: KINOMEscan; type: binding; details: 1 uM
MEK6 = MEK6 (Homo sapiens (Human), UniProt P52564); assay: KINOMEscan; type: binding; details: 1 uM
RET (V804M) = RET (V804M) (Homo sapiens (Human), UniProt P07949, V804M); assay: KINOMEscan; type: binding; details: 1 uM
EGFR (G719C) = EGFR (G719C) (Homo sapiens (Human), UniProt P00533, G719C); assay: KINOMEscan; type: binding; details: 1 uM
WNK3 = WNK3 (Homo sapiens (Human), UniProt Q9BYP7); assay: KINOMEscan; type: binding; details: 1 uM
ARK5 = ARK5 (Homo sapiens (Human), UniProt O60285); assay: KINOMEscan; type: binding; details: 1 uM
SIK1 = SIK1 (Homo sapiens (Human), UniProt P57059); assay: Percent activity against SIK1 at 1 μM; type: biochemical
SIK1, sequence (P57059 whole entry): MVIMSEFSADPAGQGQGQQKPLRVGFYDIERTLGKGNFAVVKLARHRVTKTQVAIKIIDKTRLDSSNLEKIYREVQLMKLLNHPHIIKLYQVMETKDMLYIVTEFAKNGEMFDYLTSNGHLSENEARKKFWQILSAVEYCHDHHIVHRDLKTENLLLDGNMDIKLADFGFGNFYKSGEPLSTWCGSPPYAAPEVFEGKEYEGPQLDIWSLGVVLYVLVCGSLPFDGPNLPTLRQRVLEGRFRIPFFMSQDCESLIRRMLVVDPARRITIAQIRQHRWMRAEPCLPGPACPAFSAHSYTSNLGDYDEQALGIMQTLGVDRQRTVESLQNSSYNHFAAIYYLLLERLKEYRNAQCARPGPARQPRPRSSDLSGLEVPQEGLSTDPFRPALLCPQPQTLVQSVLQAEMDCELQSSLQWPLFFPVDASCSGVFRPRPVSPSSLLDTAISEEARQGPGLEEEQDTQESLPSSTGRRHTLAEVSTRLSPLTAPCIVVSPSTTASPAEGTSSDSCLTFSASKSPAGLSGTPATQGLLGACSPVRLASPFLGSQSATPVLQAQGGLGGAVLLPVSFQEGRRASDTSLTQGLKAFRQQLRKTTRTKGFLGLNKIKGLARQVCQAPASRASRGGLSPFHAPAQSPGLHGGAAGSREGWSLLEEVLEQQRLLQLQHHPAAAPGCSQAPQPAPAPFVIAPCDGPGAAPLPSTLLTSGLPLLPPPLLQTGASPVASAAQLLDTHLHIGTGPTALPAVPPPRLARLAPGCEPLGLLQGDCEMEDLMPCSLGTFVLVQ

SRMS, sequence (Q9H3Y6 whole entry): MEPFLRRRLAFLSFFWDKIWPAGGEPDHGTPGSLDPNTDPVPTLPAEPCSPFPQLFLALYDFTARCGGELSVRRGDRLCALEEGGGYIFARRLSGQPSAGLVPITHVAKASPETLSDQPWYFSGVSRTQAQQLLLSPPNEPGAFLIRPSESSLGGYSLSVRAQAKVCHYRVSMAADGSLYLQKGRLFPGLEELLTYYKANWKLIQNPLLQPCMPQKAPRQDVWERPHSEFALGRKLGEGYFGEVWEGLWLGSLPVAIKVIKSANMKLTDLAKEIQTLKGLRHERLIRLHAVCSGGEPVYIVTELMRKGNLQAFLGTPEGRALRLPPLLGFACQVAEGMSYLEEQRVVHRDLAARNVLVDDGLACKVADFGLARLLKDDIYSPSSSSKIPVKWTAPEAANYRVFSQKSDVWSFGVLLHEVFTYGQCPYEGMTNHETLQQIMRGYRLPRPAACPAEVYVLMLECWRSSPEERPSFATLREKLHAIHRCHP
GRK7, sequence (Q8WTQ7 whole entry): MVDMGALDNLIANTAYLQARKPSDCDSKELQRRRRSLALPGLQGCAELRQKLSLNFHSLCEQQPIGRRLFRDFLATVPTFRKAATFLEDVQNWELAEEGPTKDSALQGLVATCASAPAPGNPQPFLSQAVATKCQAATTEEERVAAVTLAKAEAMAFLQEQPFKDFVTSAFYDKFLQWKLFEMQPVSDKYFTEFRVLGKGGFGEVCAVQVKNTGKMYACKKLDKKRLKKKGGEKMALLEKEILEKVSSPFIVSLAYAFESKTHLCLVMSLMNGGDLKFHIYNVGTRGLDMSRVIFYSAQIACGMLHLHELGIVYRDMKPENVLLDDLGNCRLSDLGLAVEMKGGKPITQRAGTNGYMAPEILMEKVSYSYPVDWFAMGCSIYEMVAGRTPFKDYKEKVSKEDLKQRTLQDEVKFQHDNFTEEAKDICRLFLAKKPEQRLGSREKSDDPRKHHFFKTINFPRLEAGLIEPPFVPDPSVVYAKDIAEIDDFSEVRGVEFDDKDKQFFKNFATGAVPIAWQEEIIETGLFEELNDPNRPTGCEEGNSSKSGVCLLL
TRKC, sequence (Q16288 32-839): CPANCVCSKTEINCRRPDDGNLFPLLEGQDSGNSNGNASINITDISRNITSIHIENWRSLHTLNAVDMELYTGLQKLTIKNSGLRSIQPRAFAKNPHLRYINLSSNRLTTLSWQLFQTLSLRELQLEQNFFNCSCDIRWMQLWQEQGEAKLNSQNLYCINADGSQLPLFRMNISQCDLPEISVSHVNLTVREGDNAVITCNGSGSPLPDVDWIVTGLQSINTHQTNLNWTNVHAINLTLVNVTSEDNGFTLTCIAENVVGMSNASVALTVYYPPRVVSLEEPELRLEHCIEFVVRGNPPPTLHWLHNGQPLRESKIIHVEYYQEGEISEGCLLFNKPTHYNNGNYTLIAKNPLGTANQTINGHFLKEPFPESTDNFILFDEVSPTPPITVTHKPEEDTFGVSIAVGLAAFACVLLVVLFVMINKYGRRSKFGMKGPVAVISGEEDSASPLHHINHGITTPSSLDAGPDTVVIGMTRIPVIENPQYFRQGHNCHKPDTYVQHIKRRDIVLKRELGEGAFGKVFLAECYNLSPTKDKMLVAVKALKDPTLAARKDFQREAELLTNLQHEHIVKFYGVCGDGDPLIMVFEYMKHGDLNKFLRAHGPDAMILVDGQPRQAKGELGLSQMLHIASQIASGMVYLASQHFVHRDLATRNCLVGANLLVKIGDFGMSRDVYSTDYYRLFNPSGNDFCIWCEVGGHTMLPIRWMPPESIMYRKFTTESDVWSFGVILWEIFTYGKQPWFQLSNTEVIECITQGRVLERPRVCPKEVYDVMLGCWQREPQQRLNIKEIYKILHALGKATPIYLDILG
DLK, sequence (Q12852 whole entry): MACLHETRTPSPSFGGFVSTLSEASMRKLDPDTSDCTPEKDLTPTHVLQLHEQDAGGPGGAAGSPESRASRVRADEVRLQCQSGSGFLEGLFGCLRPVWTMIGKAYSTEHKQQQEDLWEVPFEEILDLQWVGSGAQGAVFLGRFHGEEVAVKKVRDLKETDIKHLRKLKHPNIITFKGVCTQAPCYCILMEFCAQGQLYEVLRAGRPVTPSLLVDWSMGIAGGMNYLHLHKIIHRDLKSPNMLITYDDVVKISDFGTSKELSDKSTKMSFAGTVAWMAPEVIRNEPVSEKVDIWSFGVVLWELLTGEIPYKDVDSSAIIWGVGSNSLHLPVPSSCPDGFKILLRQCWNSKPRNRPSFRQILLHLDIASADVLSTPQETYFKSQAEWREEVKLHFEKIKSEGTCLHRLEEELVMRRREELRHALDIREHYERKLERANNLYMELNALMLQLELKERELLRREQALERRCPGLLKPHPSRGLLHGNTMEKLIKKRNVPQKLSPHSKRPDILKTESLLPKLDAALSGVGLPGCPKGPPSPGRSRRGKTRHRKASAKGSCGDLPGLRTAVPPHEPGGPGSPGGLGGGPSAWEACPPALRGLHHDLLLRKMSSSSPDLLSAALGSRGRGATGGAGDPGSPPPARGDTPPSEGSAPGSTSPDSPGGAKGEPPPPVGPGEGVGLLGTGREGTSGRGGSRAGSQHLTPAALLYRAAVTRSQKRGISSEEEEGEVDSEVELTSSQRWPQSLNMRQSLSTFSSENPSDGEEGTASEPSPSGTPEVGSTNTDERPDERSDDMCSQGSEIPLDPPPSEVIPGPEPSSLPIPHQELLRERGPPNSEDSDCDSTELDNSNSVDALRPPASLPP
CSNK2A2, sequence (P19784 whole entry): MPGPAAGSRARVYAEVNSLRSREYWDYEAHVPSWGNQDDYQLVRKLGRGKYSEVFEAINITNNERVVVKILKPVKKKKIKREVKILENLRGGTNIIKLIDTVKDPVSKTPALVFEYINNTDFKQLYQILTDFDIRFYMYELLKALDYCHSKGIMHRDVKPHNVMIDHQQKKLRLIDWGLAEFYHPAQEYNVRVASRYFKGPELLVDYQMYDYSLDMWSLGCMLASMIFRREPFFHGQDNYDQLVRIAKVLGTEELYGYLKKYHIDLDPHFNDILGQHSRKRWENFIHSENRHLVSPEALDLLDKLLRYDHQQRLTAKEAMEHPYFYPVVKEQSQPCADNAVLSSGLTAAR
p38-alpha, sequence (Q16539 whole entry): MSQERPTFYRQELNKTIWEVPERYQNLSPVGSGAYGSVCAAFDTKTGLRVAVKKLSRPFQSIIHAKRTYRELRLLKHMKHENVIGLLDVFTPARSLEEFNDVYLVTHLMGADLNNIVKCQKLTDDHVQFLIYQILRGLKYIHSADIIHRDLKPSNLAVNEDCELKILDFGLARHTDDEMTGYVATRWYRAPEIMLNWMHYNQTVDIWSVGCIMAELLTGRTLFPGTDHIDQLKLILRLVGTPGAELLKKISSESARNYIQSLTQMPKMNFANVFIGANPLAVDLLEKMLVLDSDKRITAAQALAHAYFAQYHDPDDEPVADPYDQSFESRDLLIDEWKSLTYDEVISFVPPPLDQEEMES
JAK3 (JH1domain-catalytic), sequence (P52333 822-1111): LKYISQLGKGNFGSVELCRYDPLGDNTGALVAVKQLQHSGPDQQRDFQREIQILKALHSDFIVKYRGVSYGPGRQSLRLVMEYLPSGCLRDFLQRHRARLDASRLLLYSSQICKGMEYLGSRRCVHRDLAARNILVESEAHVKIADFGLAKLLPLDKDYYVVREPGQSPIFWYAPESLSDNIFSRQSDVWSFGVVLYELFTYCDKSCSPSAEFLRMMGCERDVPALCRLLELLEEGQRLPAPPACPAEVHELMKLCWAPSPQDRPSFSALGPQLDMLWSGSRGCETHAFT
MEK6, sequence (P52564 whole entry): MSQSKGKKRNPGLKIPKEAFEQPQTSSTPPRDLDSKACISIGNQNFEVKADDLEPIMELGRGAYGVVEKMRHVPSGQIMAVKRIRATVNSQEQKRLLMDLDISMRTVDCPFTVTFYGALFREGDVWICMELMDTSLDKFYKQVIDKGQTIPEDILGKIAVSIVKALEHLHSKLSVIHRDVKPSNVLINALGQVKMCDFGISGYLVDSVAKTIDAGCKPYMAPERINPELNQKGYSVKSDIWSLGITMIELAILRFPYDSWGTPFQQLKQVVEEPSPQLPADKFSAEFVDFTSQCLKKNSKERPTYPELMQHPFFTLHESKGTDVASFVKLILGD

COc1ccc(N2C(=O)N(c3c(C)cccc3C)Cc3cnc(Nc4ccc(N5CCN(C)CC5)cc4)nc32)c(OC)c1 [HG-11-136-01]
KINOMEscan EPHB3 (EPHB3): 0
KINOMEscan CSNK1E (CSNK1E): 59
KINOMEscan LRRK2 (G2019S) (LRRK2 (G2019S)): 6.6
KINOMEscan YSK4 (YSK4): 0.4
KINOMEscan GRK7 (GRK7): 96
KINOMEscan EPHA4 (EPHA4): 0
KINOMEscan NEK11 (NEK11): 21
KINOMEscan BRK (BRK): 0.45
KINOMEscan CSNK2A2 (CSNK2A2): 0.05
KINOMEscan MARK2 (MARK2): 3.7
KINOMEscan MET (M1250T) (MET (M1250T)): 46
KINOMEscan TRKC (TRKC): 71
KINOMEscan EPHA8 (EPHA8): 0.9
KINOMEscan ALK (L1196M) (ALK (L1196M)): 8.2
KINOMEscan FGR (FGR): 0
KINOMEscan EPHA2 (EPHA2): 0.6
KINOMEscan p38-alpha (p38-alpha): 1
KINOMEscan AURKC (AURKC): 33
KINOMEscan ABL1 (F317I)-nonphosphorylated [1]: 0
KINOMEscan CDKL1 (CDKL1): 84
KINOMEscan p38-beta (p38-beta): 3.1
KINOMEscan STK33 (STK33): 24
KINOMEscan SYK (SYK): 1.2
KINOMEscan SRMS (SRMS): 0
KINOMEscan ALK (ALK): 1.6
KINOMEscan INSR (INSR): 48
KINOMEscan PDGFRB (PDGFRB): 0
KINOMEscan DLK (DLK): 6.6
KINOMEscan BMPR1B (BMPR1B): 0
KINOMEscan ABL2 (ABL2): 0.35
KINOMEscan JAK3 (JH1domain-catalytic) [2]: 0
KINOMEscan GSK3B (GSK3B): 100
KINOMEscan PLK1 (PLK1): 60
KINOMEscan FGFR2 (FGFR2): 0.8
KINOMEscan MEK6 (MEK6): 30
KINOMEscan RET (V804M) (RET (V804M)): 7.6
KINOMEscan EGFR (G719C) (EGFR (G719C)): 0.1
KINOMEscan WNK3 (WNK3): 50
KINOMEscan ARK5 (ARK5): 8.2
Enzyme activity at 1 μM (%) SIK1 (SIK1; 1 μM): 19.1%
SIK1 % ACTIVITY (SIK1; compound at 1 μM, approximate Km for ATP): 19.1%
